One test has as its target Prothrombin (Homo sapiens, UniProt P00734). Put plainly: Inhibitory activity against human thrombin.
A further test concerns the target Coagulation factor X (Homo sapiens, UniProt P00742). Put plainly: Inhibition of Coagulation factor Xa.

Each structure is given as a SMILES string.

In ChEMBL document CHEMBL1135480, “Design and quantitative structure-activity relationship of 3-amidinobenzyl-1H-indole-2-carboxamides as potent, nonchiral, and selective inhibitors of blood coagulation factor Xa” (J Med Chem, 2002) one finds Ki data, which are given here for 35 molecules.

The Ki is a measure of affinity in units of concentration, obtained from inhibition or displacement. A higher Ki goes with weaker binding.

Coagulation factor X, sequence (P00742 41-179 limits assumed): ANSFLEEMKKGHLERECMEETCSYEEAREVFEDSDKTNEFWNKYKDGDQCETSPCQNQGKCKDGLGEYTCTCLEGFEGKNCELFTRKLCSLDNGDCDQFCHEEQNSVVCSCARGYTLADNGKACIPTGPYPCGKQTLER
Coagulation factor X, sequence (P00742 235-488 limits assumed): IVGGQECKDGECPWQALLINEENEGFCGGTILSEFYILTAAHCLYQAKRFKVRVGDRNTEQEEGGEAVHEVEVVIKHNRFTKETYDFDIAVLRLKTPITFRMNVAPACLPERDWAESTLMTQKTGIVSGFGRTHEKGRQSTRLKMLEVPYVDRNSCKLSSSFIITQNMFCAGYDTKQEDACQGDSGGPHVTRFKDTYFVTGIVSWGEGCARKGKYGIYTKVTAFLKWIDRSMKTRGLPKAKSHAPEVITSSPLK

For `Cc1cc(CNC(=O)c2cc3c(O)cccc3n2Cc2cccc(C(=N)N)c2)cc(C(F)(F)F)c1`, the Ki on Prothrombin came to 480 nM.

As to `C[N+](C)(C)c1ccc(CNC(=O)c2cc3cc(Cl)ccc3n2Cc2cccc(C(=N)N)c2)cc1`, the Ki on Prothrombin turned out to be 15800 nM; on Coagulation factor X it was 140 nM.

`N=C(N)c1cccc(Cn2c(C(=O)NCc3cc(F)cc(C(F)(F)F)c3)cc3c(O)cccc32)c1`: the values for the Ki on Prothrombin and on Coagulation factor X were 1710 nM and 39 nM, respectively.

On to `C[n+]1ccc(CNC(=O)c2cc3cc(N)ccc3n2Cc2cccc(C(=N)N)c2)cc1`, for which the inhibition constant (Ki) turned out to be 57000 nM at Prothrombin and 100 nM on Coagulation factor X.

`C[N+](C)(C)c1ccc(CNC(=O)c2cc3c(O)cccc3n2Cc2cccc(C(=N)N)c2)cc1` gave a Ki on Prothrombin of 9090 nM.

On to `N=C(N)c1cccc(Cn2c(C(=O)NCc3cc(C(F)(F)F)cc(C(F)(F)F)c3)cc3c(O)cccc32)c1`, for which the Ki at Prothrombin worked out at 1180 nM; at Coagulation factor X, 99 nM.

Consider `N=C(N)c1ccc(CNC(=O)c2cc3cc(N)ccc3n2Cc2cccc(C(=N)N)c2)cc1`, for which the inhibition constant Ki came out at 5600 nM at Prothrombin and 89 nM at Coagulation factor X.

Turning to `Cc1cccc2c1c(Br)c(C(=O)NCc1cccc(C(=N)N)c1)n2Cc1cccc(C(=N)N)c1`, the Ki at Prothrombin turned out to be 2070 nM; at Coagulation factor X it was 50 nM.

As to `N=C(N)c1cccc(CNC(=O)c2c(Br)c3ccccc3n2Cc2cccc(C(=N)N)c2)c1`, the Ki at Prothrombin worked out at 3290 nM; at Coagulation factor X, 26 nM.

At Prothrombin, `N=C(N)c1ccc(CNC(=O)c2cc3c(O)cccc3n2Cc2cccc(C(=N)N)c2)cc1` displayed a Ki of 4200 nM.

Consider `Cc1cccc2c1cc(C(=O)NCc1nccc3ccccc13)n2Cc1cccc(C(=N)N)c1`, for which the Ki at Prothrombin was determined as 200 nM; at Coagulation factor X, 15 nM.

At Prothrombin, `N=C(N)c1cccc(CNC(=O)c2c(Cl)c3ccccc3n2Cc2cccc(C(=N)N)c2)c1` registered a Ki of 4240 nM.

`N=C(N)c1cccc(COC(=O)c2cc3ccccc3n2Cc2cccc(C(=N)N)c2)c1` gave a Ki at Prothrombin of 2460 nM.

For the molecule `N=C(N)c1cccc(Cn2c(C(=O)NCc3nccc4ccccc34)cc3c(O)cccc32)c1`, the values for the Ki at Prothrombin and on Coagulation factor X were 290 nM and 20 nM, respectively.

As for `Cc1cccc2c1cc(C(=O)NCc1cccc(C(=N)N)c1)n2Cc1cccc(C(=N)N)c1`, the Ki on Prothrombin was 2390 nM.

`Cc1cc(C)cc(CNC(=O)c2cc3c(C)cccc3n2Cc2cccc(C(=N)N)c2)c1` yielded a Ki at Prothrombin of 1420 nM.

For `N=C(N)c1cccc(Cn2c(C(=O)NCc3cc(Cl)cc(Cl)c3Cl)cc3c(O)cccc32)c1`, the Ki at Prothrombin is 270 nM; at Coagulation factor X it was 99 nM.

Regarding `CC(C)(C)OC(=O)Nc1ccc2c(c1)cc(C(=O)NCc1ccc([N+](C)(C)C)cc1)n2Cc1cccc(C(=N)N)c1`, the affinity on Prothrombin, expressed as Ki, was 28000 nM.

On to `Cc1cccc2c1cc(C(=O)NCc1ccc([N+](C)(C)Cc3ccccc3)cc1)n2Cc1cccc(C(=N)N)c1`, for which the results for the Ki at Prothrombin and on Coagulation factor X were 3900 nM and 23 nM, respectively.

At Coagulation factor X, `C[n+]1ccc(CNC(=O)c2cc3ccccc3n2Cc2cccc(C(=N)N)c2)cc1` displayed a Ki of 150 nM.

At Coagulation factor X, `C[n+]1ccc(CNC(=O)c2cc3c(O)cccc3n2Cc2cccc(C(=N)N)c2)c2ccccc21` yielded a Ki of 50 nM.

Take `N=C(N)c1cccc(Cn2c(C(=O)NCc3cccc(NC(N)=O)c3)cc3c(O)cccc32)c1`: the affinity at Coagulation factor X, expressed as Ki, was 180 nM.

`CCOC(=O)c1cc2ccccc2n1Cc1cccc(C(=N)N)c1` gave a Ki on Coagulation factor X of 4200 nM.

For `N=C(N)c1cccc(CNC(=O)c2cc3cc(N)ccc3n2Cc2cccc(C(=N)N)c2)c1`, affinity on Coagulation factor X was put at a Ki of 51 nM.

On to `C[N+](C)(C)c1ccc(CNC(=O)c2cn(Cc3cccc(C(=N)N)c3)c3ccccc23)cc1`, for which the Ki on Coagulation factor X worked out at 1820 nM.

Turning to `N=C(N)c1ccc(CNC(=O)c2cn(Cc3cccc(C(=N)N)c3)c3ccccc23)cc1`, at Coagulation factor X, the affinity corresponds to a Ki of 1120 nM.

Consider `Cc1cccc2c1cc(C(=O)NCc1cc(Cl)cc(Cl)c1)n2Cc1cccc(C(=N)N)c1`, for which the Ki at Prothrombin came to 1610 nM.

`Cc1cccc2c1cc(C(=O)NCc1ccc(N(C)C)cc1)n2Cc1cccc(C(=N)N)c1` came in with a Ki on Coagulation factor X of 1310 nM.

Regarding `N=C(N)c1cccc(Cn2c(C(=O)NCc3ccc4ccccc4c3)cc3c(O)cccc32)c1`, affinity at Coagulation factor X was put at a Ki of 1720 nM.

Take `COC(=O)c1c(C)c2ccccc2n1Cc1cccc(C(=N)N)c1`: the affinity on Coagulation factor X, expressed as Ki, was 8800 nM.

`COC(=O)c1cccc(CNC(=O)c2cc3c(O)cccc3n2Cc2cccc(C(=N)N)c2)c1` yielded a Ki at Coagulation factor X of 2040 nM.

Consider `COc1cccc2c1cc(C(=O)NCCc1ccc(O)cc1)n2Cc1cccc(C(=N)N)c1`, for which the Ki at Coagulation factor X came out at 970 nM.

As for `N=C(N)c1cccc(Cn2c(C(N)=O)cc3c(O)cccc32)c1`, the Ki at Coagulation factor X was determined as 7160 nM.

Regarding `C[N+](C)(C)c1ccc(CNC(=O)c2cc3c(Br)cccc3n2Cc2cccc(C(=N)N)c2)cc1`, on Coagulation factor X, the Ki is 24 nM.

`N=C(N)c1cccc(Cn2c(C(=O)NCc3ccccc3Cl)cc3c(O)cccc32)c1`: at Coagulation factor X, the Ki was found to be 1200 nM.
